For one assay, the target named is CDK2/cyclinE (Homo sapiens, UniProt P24941). Briefly: CDK2 enzyme assay: off-chip mobility shift assay. Format: biochemical. Details: purchased Upstate/Millipore. The following applies: for pIC50: biochemical, CDK2/cyclinE, average of two determinations; for fold drop in potency in the CDK2 assay / fold improvement in CDK2 inhibition: relative to compound 3. The protocol:
CDK2 enzyme assay: Off-chip Mobility SHIFT Assay
All reagents were purchased from Sigma-Aldrich unless otherwise specified. Inhibition of CDK2/cyclinE activity was quantified using an off-chip incubation, mobility shift assay, which uses a microfluidic chip (Caliper Life Sciences) to measure the conversion of a fluorescent peptide substrate to phosphorylated product. An Off-chip Mobility Shift Chip with 12 sippers (Caliper Life Sciences) was prepared for use according to the manufacturer’s instructions using Coating Reagent #3 (Caliper Life Sciences). The off-chip incubation was carried out in white, 384-well, flat bottom, low volume assay plates (Greiner). 5 µL peptide mix (1.5 µM substrate peptide (fluorescein-QSPKKG-CONH2, Bachem) and 90 µM ATP in kinase base buffer (50 mM HEPES, pH7.5 (Calbiochem), 0.06% CHAPSO)) were added to each well of the prepared compound plates which contained 120 nL compound stock solution per well. The reaction was then initiated by the addition of 6 µL enzyme mix (1.0 nM CDK2/cyclin E (Upstate/Millipore), 1.0 mM DTT and 5.0 mM MgCl2 in kinase base buffer). After incubation for 60 min at room temperature, each reaction was terminated by the addition of 10µL of stop solution containing 100 mM HEPES pH 7.5 (Calbiochem), 0.033% Brij-35, 0.22% Coating Reagent #3 (Caliper Life Sciences), 44 mM EDTA and 5 % DMSO. Reaction products were analysed using a Caliper LabChip LC3000 instrument and peak height was used to calculate percentage conversion of substrate to product.
For compound response testing, a 12 point compound concentration range was used. Compounds were acoustically dosed (Echo 555; Labcyte) into assay-ready plates using 11 half log intervals from 100 μM to […] plus a 12th point at 0.01 μM. Each well was backfilled with the required volume up to 120 nL of 100% DMSO to ensure a final 1% v/v DMSO concentration in the assay. In addition to the compound test wells, each plate carried maximum and minimum controls. Staurosporine at 10 μM was used to inhibit CDK2 activity for the minimum control. As a maximum control, 120 nL pure DMSO was added to the wells. Each plate contained at least 11 randomly distributed maximum and minimum controls. After the addition of compounds to the assay plates, the assay was performed as detailed above. Percentage conversion of substrate to product was used to calculate the effect of each compound on the kinase activity of CDK2/cyclinE. Enzyme inhibition model 3, non-linear curve fit analysis within OriginLab™ software was used to fit dose response curves and estimate the […]
concentration of compound required to reduce the enzyme activity to 50% of the conversion calculated from an average of the maximum controls.
Cell-based ELISA (Cellisa) for HSP72 expression
To follow HSP72 protein expression, a product of HSF1 transcriptional activity, Cellisa was developed. Cells (5-8x10^4cells/ml) were seeded into 96-well plates and incubated at 37 °C for 48 h.
Compounds were then added at a range of concentrations and incubated for 1 h before addition of 17-AAG (250 nM). Cells were then incubated for 18 h. The medium was removed and cells were fixed with fixing solution (4% paraformaldehyde, 0.3% TritonX-100 in PBS) for 30 min at 4 °C. The plates were then washed with 0.1% Tween-20/deionised water before blocking with 5% milk for 30 min at 37 °C. After washing the plates, HSP72 antibody (SPA-810, Enzo Life) was added for 1.5 h at 37 °C.
Following 4 x washes, the plates were incubated with europium-labelled anti-mouse antibody (0.6ug/ml) in Delfia assay buffer (Perkin Elmer) for 1 h at 37 °C. After washing the plates, Delfia enhancement solution was added, shaken for 10 min before reading in the Envision plate reader (Perkin-Elmer) with excitation at 340 nm and emission at 615 nm. The plates were washed again before protein determination using the BCA assay. The europium counts were normalised for the amount of protein in each well. The 50% inhibitory concentration value of the compound was then calculated and presented. […]

For the next assay, the system named is HSF1-stress pathway. As to the kind of experiment: ArrayScan HSP72 protein assay (HSF1-stress pathway inhibition, 17-AAG induced). The following applies: for pIC50: Homo sapiens, U2OS, read-out: HSF1 IC50; for fold drop in potency in the HSF1-stress pathway assay / fold increase in HSF1-stress pathway inhibition: relative to compound 3.
For the next assay, the target named is T1, CDK9/cyclin T1 (Homo sapiens, UniProt P50750).
T1 construct: purchased EMD Millipore screening panel (now Eurofins)
T1 sequence (P50750 whole entry): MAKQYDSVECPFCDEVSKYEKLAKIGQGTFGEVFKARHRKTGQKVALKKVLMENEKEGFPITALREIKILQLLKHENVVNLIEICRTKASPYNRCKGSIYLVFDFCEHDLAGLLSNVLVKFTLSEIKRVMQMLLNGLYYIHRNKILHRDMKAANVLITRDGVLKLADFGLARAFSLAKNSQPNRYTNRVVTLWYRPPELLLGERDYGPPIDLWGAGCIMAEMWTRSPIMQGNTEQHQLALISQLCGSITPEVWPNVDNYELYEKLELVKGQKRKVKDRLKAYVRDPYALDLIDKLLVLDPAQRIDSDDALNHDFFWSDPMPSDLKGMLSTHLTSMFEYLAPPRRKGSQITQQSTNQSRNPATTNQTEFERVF
T1 sequence (O60563 whole entry partner): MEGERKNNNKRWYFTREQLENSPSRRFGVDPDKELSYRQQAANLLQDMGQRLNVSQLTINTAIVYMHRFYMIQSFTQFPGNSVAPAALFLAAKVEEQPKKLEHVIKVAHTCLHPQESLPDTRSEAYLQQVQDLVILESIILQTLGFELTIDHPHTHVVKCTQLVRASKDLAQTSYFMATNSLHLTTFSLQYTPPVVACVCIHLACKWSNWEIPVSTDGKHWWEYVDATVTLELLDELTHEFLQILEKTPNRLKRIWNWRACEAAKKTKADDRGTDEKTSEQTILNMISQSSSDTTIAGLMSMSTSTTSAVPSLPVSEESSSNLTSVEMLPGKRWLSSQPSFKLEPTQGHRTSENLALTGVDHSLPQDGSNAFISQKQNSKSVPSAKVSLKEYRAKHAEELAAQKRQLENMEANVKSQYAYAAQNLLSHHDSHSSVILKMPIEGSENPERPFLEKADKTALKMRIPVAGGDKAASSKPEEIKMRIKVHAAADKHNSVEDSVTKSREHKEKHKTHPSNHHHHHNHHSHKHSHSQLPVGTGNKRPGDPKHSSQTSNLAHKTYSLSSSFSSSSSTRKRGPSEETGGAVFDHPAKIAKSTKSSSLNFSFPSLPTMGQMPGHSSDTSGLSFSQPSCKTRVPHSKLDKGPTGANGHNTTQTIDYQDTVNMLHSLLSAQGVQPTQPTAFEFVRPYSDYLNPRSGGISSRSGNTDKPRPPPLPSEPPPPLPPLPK
As to the kind of experiment: EMD Millipore (Eurofins) CDK panel. The following applies: EMD Millipore screening panel, N = 1. Format: biochemical. As to the method:
Therefore 4,6-pyrimidine 3 was submitted to a EMD Millipore CDK panel to assess potency across the selected CDK family members (Table 3). Modest activity was observed against several CDKs; […]. […]. page 4: […]
mM Mg Acetate and […] (specific activity approx. 500 cpm/pmol, concentration as required). The reaction is initiated by the addition of the MgATP mix. After incubation for 40 minutes at room temperature, the reaction is stopped by the addition of 3% phosphoric acid solution. 10 μL of the reaction is then spotted onto a P30 filtermat and washed three times for 5 minutes in 75 mM phosphoric acid and once in methanol prior to drying and scintillation counting. […]
CDK9/cyclinT1 (h) is incubated with 8 mM MOPS pH 7.0, 0.2 mM EDTA, 100 μM […]
, 10 mM MgAcetate and […]
(specific activity approx. 500 cpm/pmol, concentration as required). The reaction is initiated by the addition of the MgATP mix. After incubation for 40 minutes at room temperature, the reaction is stopped by the addition of 3% phosphoric acid solution. 10 μL of the reaction is then spotted onto a P30 filtermat and washed three times for 5 minutes in 75 mM phosphoric acid and once in methanol prior to drying and scintillation counting. […]

The test system of the next assay is CDK7/CyclinH/MAT1. The following applies: ratio between CDK2/7/9; ref Yin et al., Mol. Cancer Ther., 2014, 13, 1442-1456; cited from earlier work.
The test system of assay [1] is CDK9/CyclinT1. The following applies: ratio between CDK2/7/9; ref Yin et al., Mol. Cancer Ther., 2014, 13, 1442-1456; cited from earlier work.
The subject of the next assay is U2OS cells. As to the kind of experiment: SRB cell growth inhibition assay. The format is cell-based. The following applies: Homo sapiens, 96 h, read-out: SRB GI50.
Assay [2] concerns HSF1-mediated HSP72 induction. Briefly: Cell-based ELISA (Cellisa) for HSP72 expression. The conditions noted are these: Homo sapiens, U2OS, read-out: HSF1 IC50 (cell-ELISA, HSP72 induction inhibition).
For assay [3], the system named is CDK9/CyclinT1. Briefly: Adapta screen assay, Life Technologies. The conditions noted are these: ratio between CDK2/7/9, below limit of assay detection.

Here are results for 25 compounds from publication PMC5048338, “Discovery of 4,6-disubstituted pyrimidines as potent inhibitors of the heat shock factor 1 (HSF1) stress pathway and CDK9” (Medchemcomm, 2016).

pIC50: −log10 of the molar value. Like-named read-outs stand apart in the source and are kept apart here.

Protocol for HSF1-stress pathway: To discover inhibitors of the HSF1-stress pathway, we employed an automated cellular imaging and analysis method (ArrayScan™) that quantifies the ability of a compound to suppress the expression of the HSF1-mediated inducible HSP70 isoform, HSP72.
U2OS cells (1500 per well) were plated in 40 μL of DMEM media (containing 10% fetal calf serum and 2 mM Glutamax T-1) in costar 384-well plates and left overnight at 37 °C and 5% CO2 to adhere.
treatment with compound, all wells except min wells were dosed with 17AAG diluted in DMSO (10
°C and 5% CO2. The following day the cells were fixed by addition of 20 μL/well of 12% formaldehyde with 1:1700 Hoechst in PBS for 10 min at room temperature. The fixative was decanted and the wells washed once with 50 μL of phosphate buffer saline (PBS).The PBS was subsequently aspirated, and the cells were permeabilized by addition of 20 μL/well of PBS 0.3% Triton X-100 for 20 min at room temperature. The wells were then washed with 80 μL of PBS prior to the addition of 20 μL of combined primary and secondary antibodies diluted in PBS (1:10 000 mouse anti-Hsp72
11001 molecular probes), for 2 h at room temperature. The wells were then washed with 50 μL of PBS. Finally, 50 μL of PBS was added to each well, and the plates were sealed ready to analyze.
Analysis was carried out using a Cellomics Arrayscan VTI instrument and the Cellomics Arrayscan Compartmental Analysis algorithm to measure cellular levels of HSP72.
100 μM to 0.1 μM plus a 12th point at 0.01 μM. Each well was backfilled with the required volume up to 120 nL of 100% DMSO to ensure a final 1% v/v DMSO concentration in the assay. In addition to the compound test wells, each plate carried maximum and minimum controls. Staurosporine at 10 μM was used to inhibit CDK2 activity for the minimum control. As a maximum control, 120 nL pure DMSO was added to the wells. Each plate contained at least 11 randomly distributed maximum and minimum controls. After the addition of compounds to the assay plates, the assay was performed as detailed above. Percentage conversion of substrate to product was used to calculate the effect of each compound on the kinase activity of CDK2/cyclinE. Enzyme inhibition model 3, non-linear curve fit analysis within OriginLab™ software was used to fit dose response curves and estimate the

What is called pIC50 is the IC50 on a negative log10 scale, so that one unit is a factor of ten. As for `CN1CCC(Oc2ccc(Nc3cc(-n4cnc5ccccc54)ncn3)nc2)CC1` [Compound 20], the pIC50 was 5.91 on CDK2/cyclinE and 6.05 with HSF1-stress pathway.
With `CN1CCC[C@@H]1COc1ccc(Nc2cc(-n3cnc4ccccc43)ncn2)nc1` [Compound 17], the pIC50 is 8.10 at CDK9/cyclin T1 and 6.31 at CDK2/cyclinE.
Compound `CN(C)CCOc1ccc(Nc2cc(-n3ccnc3)ncn2)nc1` [Compound 6] showed a pIC50 against CDK9/cyclin T1 of 7.06. Also, on CDK2/cyclinE, the pIC50 is 5.15 and the “fold drop in potency in the CDK2 assay” value turned out to be 12 fold. Further, in the assay with HSF1-stress pathway, the pIC50 was 5.21 and the “fold drop in potency in the HSF1-stress pathway assay” value is recorded as 77 fold.
Regarding `c1ccc2c(c1)ncn2-c1cc(Nc2ccc(OCCN3CCCCC3)cn2)ncn1` [Compound 19], the pIC50 against CDK9/cyclin T1 was 8.10; at CDK2/cyclinE, 6.45; in the assay on HSF1-stress pathway, 7.24. Besides, the “fold increase in HSF1-stress pathway inhibition” value in the assay with HSF1-stress pathway is listed as 2 fold.
As for `c1ccc2c(c1)ncn2-c1cc(Nc2ccc(OCCN3CCOCC3)cn2)ncn1` [Compound 18], the pIC50 at CDK2/cyclinE was 6.26; in the assay on HSF1-stress pathway, 6.53.
With `CN(C)CCCOc1ccc(Nc2cc(-n3cnc4ccccc43)ncn2)nc1` [Compound 4], the pIC50 at CDK2/cyclinE was 6.43; in the assay on HSF1-stress pathway, 6.78.
As to `CN1CCN(c2ccc(Nc3cc(-n4cnc5ccccc54)ncn3)nc2)CC1` [Compound 21], the pIC50 on CDK9/cyclin T1 is 7.66; at CDK2/cyclinE, 6.19; in the assay on HSF1-stress pathway, 6.35.
Take `CN(C)CCOc1ccc(Nc2cc(-n3ncc4ccccc43)ncn2)nc1` [Compound 7]: the values for the pIC50 at CDK2/cyclinE and in the assay with HSF1-stress pathway were 4.53 and less than 4.52, respectively.
The matching figures for `CN(C)CCOc1ccc(Nc2cc(-n3ccc4ccccc43)ncn2)nc1` [Compound 8]: 5.35 and 5.63.
For `Cc1ccc2ncn(-c3cc(Nc4ccc(OCCN(C)C)cn4)ncn3)c2c1` [Compound 12] the same measures were 6.92 and 7.41.
In the case of `CN(C)CCOc1ccc(Nc2cc(-n3cnc4ncccc43)ncn2)nc1` [Compound 11], on CDK2/cyclinE, the pIC50 is 6.79 and the “fold improvement in CDK2 inhibition” value was 5 fold. For the same compound, in the assay with HSF1-stress pathway, the negative-log IC50 (pIC50) was 7.55 and the “fold increase in HSF1-stress pathway inhibition” value is 3 fold.
With `CN1CCC[C@H]1COc1ccc(Nc2cc(-n3cnc4ccccc43)ncn2)nc1` [Compound 16], the pIC50 at CDK2/cyclinE is 6.27.
With `CN(C)CCOc1ccc(Nc2cc(-n3cnc4cccnc43)ncn2)nc1` [Compound 10], the pIC50 is 5.80 at CDK2/cyclinE and 6.12 with HSF1-stress pathway.
As to `Cc1nc2ccccc2n1-c1cc(Nc2ccc(OCCN(C)C)cn2)ncn1` [Compound 13], at CDK2/cyclinE, the pIC50 is 5.34 and the “fold drop in potency in the CDK2 assay” value is more than 7 fold. In the assay on HSF1-stress pathway, the pIC50 was 5.37 and the “fold drop in potency in the HSF1-stress pathway assay” value is more than 7 fold.
Consider `C[C@H]1CN(C)CCN1c1ccc(Nc2cc(-n3cnc4ccccc43)ncn2)nc1` [Compound 22], for which the pIC50 at CDK2/cyclinE was 6.08; in the assay with HSF1-stress pathway, 5.86.
Turning to `OCCc1ccc(Nc2cc(-n3cnc4ccccc43)ncn2)cc1` [Compound 1], the results for the pIC50 at CDK2/cyclinE and in the assay with HSF1-stress pathway were 5.94 and 5.70, respectively.
Take `CC(C)c1c2cc(-c3ccnc(NC4CCC(NC5CCOCC5)CC4)n3)ccc2nn1C` (stereo not drawn) [LY2857785]: in the assay on CDK7/CyclinH/MAT1, the ratio of activity CDK7/CyclinH/MAT1 was 22. The ratio of activity CDK9/CyclinT1 in the assay with CDK9/CyclinT1 [1] is 1.
Take `c1ccc(Nc2cc(-n3cnc4ccccc43)ncn2)nc1` [Compound 14]: at CDK2/cyclinE, the pIC50 was 7.23 and the “fold improvement in CDK2 inhibition” value amounted to 10 fold. Also, in the assay with HSF1-stress pathway, the pIC50 was 6.07 and the “fold drop in potency in the HSF1-stress pathway assay” value is on record as 10 fold.
As for `CN(C)CCCc1ccc(Nc2cc(-n3cnc4ccccc43)ncn2)nc1` [Compound 15], the values for the pIC50 on CDK2/cyclinE and in the assay with HSF1-stress pathway were 6.16 and 6.70, respectively.
For the compound `CN(C)CCOc1ccc(Nc2cc(-c3cnc4ccccc4c3)ncn2)nc1` [Compound 9], the pIC50 at CDK2/cyclinE is less than 4.00. The “activity in the CDK2 assay” value on CDK2/cyclinE (compared to benzimidazole 3) is “inactive”. In addition, in the assay with HSF1-stress pathway, the pIC50 was 4.75 and the “fold drop in potency in the HSF1-stress pathway assay” value is listed as approximately 200 fold.
With `CN(C)C1CCN(c2ccc(Nc3cc(-n4cnc5ccccc54)ncn3)nc2)CC1` [Compound 23], the results for the pIC50 at CDK2/cyclinE and with HSF1-stress pathway were 6.11 and 6.21, respectively.
For the compound `CN(C)CCOc1ccc(Nc2cc(-n3cnc4ccccc43)ncn2)cc1` [Compound 2], the results for the pIC50 at CDK2/cyclinE and in the assay on HSF1-stress pathway were 4.70 and 5.87, respectively. For the same compound, the “fold difference in activity between the CDK2 and HSF1-stress pathway assays” value with HSF1-stress pathway (CDK2 IC50 versus HSF1 IC50) is recorded as 15 fold.
The GI50 is the concentration that inhibits growth by half. Turning to `CC(C)(C)c1cnc(CSc2cnc(NC(=O)C3CCNCC3)s2)o1` [SNS-032, reference compound], the GI50 with U2OS cells (U2OS) amounted to 370 nM. In assay [2], the pIC50 was 6.12.
Consider `CN1CCC[C@H]1COc1ccc(Nc2cc(-n3cnc4ncccc43)ncn2)nc1` [Compound 24], for which the pIC50 on CDK2/cyclinE was 6.84.
For the compound `c1cnc2ncn(-c3cc(Nc4ccc(OCCN5CCCCC5)cn4)ncn3)c2c1` [Compound 25], in the assay with U2OS cells (U2OS cells, single agent, average of two determinations), the GI50 is 5 nM. Further, the values for the negative logarithm of the IC50 (pIC50) (on CDK2/cyclinE; in assay [2]; in the assay with HSF1-stress pathway) were 7.26, 7.82 and 7.82, respectively. Moreover, in the assay with CDK9/CyclinT1 [3], the “ratio of activity CDK9/CyclinT1” value is 1.
